Results from the supplement of paper PMC6045584.
± gives the standard deviation of the averaged measurements.

Columns and labels:
BLEOMYCIN = compound: Cc1c(N)nc([C@H](CC(N)=O)NC[C@H](N)C(N)=O)nc1C(=O)N[C@H](C(=O)N[C@H](C)[C@@H](O)[C@H](C)C(=O)N[C@H](C(=O)NCCc1nc(-c2nc(C(=O)NCCC[S+](C)C)cs2)cs1)[C@@H](C)O)[C@@H](OC1OC(CO)C(O)C(O)C1OC1OC(CO)C(O)C(OC(N)=O)C1O)c1cnc[nH]1 [BLEOMYCIN]; assay: surviving fraction relative to DMSO-only wells; higher = less growth inhibition; conditions: exposure time: 5 days
In short: (§1)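 Inhibitors at 0.5, 1, 5, 10, 50, 100, 500 and 1000 nM were applied continuously for five days to tumour cell lines seeded in log phase at 250–500 cells per well in 384-well plates 24 hours earlier. Viability was measured by CellTiter-Glo luminescence and expressed as surviving fraction relative to the median of DMSO-only wells. Luminescence was taken after 10 minutes at room temperature.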

AFIMOXIFENE = compound: CC/C(=C(\c1ccc(O)cc1)c1ccc(OCCN(C)C)cc1)c1ccccc1 [AFIMOXIFENE]; assay: as above; conditions: exposure time: 5 days
In short: as §1

Test System	surviving fraction (BLEOMYCIN; 0.5 nM)	surviving fraction (BLEOMYCIN; 1 nM)	surviving fraction (BLEOMYCIN; 5 nM)	surviving fraction (BLEOMYCIN; 10 nM)	surviving fraction (BLEOMYCIN; 50 nM)	surviving fraction (BLEOMYCIN; 100 nM)	surviving fraction (BLEOMYCIN; 500 nM)	surviving fraction (BLEOMYCIN; 1000 nM)	surviving fraction (AFIMOXIFENE; 0.5 nM)	surviving fraction (AFIMOXIFENE; 1 nM)	surviving fraction (AFIMOXIFENE; 5 nM)	surviving fraction (AFIMOXIFENE; 10 nM)	surviving fraction (AFIMOXIFENE; 50 nM)	surviving fraction (AFIMOXIFENE; 100 nM)	surviving fraction (AFIMOXIFENE; 500 nM)	surviving fraction (AFIMOXIFENE; 1000 nM)
HCC1395 BREAST	0.865 ± 0.04	0.881 ± 0.14	0.84 ± 0.1	0.902 ± 0.042	0.823 ± 0.12	0.872 ± 0.074	0.761 ± 0.12	0.73 ± 0.065	1.26 ± 0.13	1.15 ± 0.057	1.33 ± 0.13	1.25 ± 0.048	1.19 ± 0.13	1.12 ± 0.12	1.04 ± 0.11	1.09 ± 0.16
HCC1806 BREAST	0.771 ± 0.058	0.824 ± 0.1	0.682 ± 0.035	0.56 ± 0.0059	0.397 ± 0.0062	0.2757 ± 0.0015	0.108 ± 0.0021	0.0743 ± 0.0095	1.04 ± 0.065	1.1 ± 0.077	1.16 ± 0.12	1.14 ± 0.048	1.15 ± 0.026	1.13 ± 0.072	0.965 ± 0.028	0.682 ± 0.064
HCC1954 BREAST	0.4128 ± 0.0025	0.433 ± 0.01	0.42 ± 0.043	0.456 ± 0.0085	0.467 ± 0.037	0.415 ± 0.064	0.364 ± 0.061	0.417 ± 0.01	1.01 ± 0.15	1 ± 0.0018	1.31 ± 0.18	1.33 ± 0.1	0.9337 ± 0.0067	1.02 ± 0.056	0.973 ± 0.1	0.883 ± 0.12
HCT15 LARGE INTESTINE	0.883 ± 0.065	0.887 ± 0.025	0.852 ± 0.011	0.85 ± 0.019	0.805 ± 0.022	0.66 ± 0.044	0.15 ± 0.019	0.104 ± 0.0095	1.08 ± 0.077	1.05 ± 0.055	1.07 ± 0.085	1.06 ± 0.097	1.04 ± 0.054	1.07 ± 0.025	1.07 ± 0.054	1.09 ± 0.056
HELA CERVIX	0.972 ± 0.026	0.932 ± 0.02	0.958 ± 0.024	0.963 ± 0.027	1.035 ± 0.0087	1.07 ± 0.061	0.803 ± 0.032	0.6 ± 0.062	1.05 ± 0.063	1.02 ± 0.11	1.08 ± 0.061	1 ± 0.055	1.1 ± 0.071	1.11 ± 0.065	1.17 ± 0.058	1.08 ± 0.12
HOS BONE	0.936 ± 0.0079	0.926 ± 0.023	0.9497 ± 0.0038	0.94 ± 0.017	1 ± 0.035	0.984 ± 0.014	0.589 ± 0.043	0.291 ± 0.039	1.02 ± 0.013	1.03 ± 0.016	1.06 ± 0.012	1.03 ± 0.013	1.12 ± 0.014	1.08 ± 0.031	1.05 ± 0.024	0.974 ± 0.0061
HOSMNG BONE	0.966 ± 0.025	0.983 ± 0.011	0.992 ± 0.015	1.01 ± 0.021	1.05 ± 0.048	1.03 ± 0.083	0.984 ± 0.029	0.845 ± 0.035	0.922 ± 0.073	0.948 ± 0.032	0.996 ± 0.083	0.963 ± 0.038	1.1 ± 0.017	1.06 ± 0.032	1.07 ± 0.077	1.03 ± 0.078
HSSYII SYNOVIAL	0.797 ± 0.068	0.872 ± 0.045	0.768 ± 0.045	0.788 ± 0.017	0.6562 ± 0.0056	0.572 ± 0.029	0.224 ± 0.014	0.14 ± 0.0027	0.993 ± 0.029	1.04 ± 0.021	0.989 ± 0.075	1.02 ± 0.055	1.01 ± 0.035	0.993 ± 0.046	0.921 ± 0.07	0.968 ± 0.05
HT1080 SOFT TISSUE	1.001 ± 0.0036	0.965 ± 0.044	0.935 ± 0.018	0.886 ± 0.024	0.798 ± 0.071	0.7 ± 0.046	0.402 ± 0.0042	0.324 ± 0.012	1.07 ± 0.035	1.08 ± 0.018	1.08 ± 0.037	1.04 ± 0.018	1.01 ± 0.039	1.04 ± 0.023	1.07 ± 0.042	1.06 ± 0.035
HU09 BONE	0.805 ± 0.015	0.923 ± 0.031	0.9 ± 0.084	0.831 ± 0.058	0.883 ± 0.083	0.761 ± 0.037	0.381 ± 0.013	0.246 ± 0.028	1 ± 0.069	0.969 ± 0.057	1.02 ± 0.077	1.21 ± 0.1	1.13 ± 0.08	1.04 ± 0.065	0.971 ± 0.083	0.945 ± 0.038
